Results published in US20070054965A1, “AMPK activating agent” (Kao Corporation, priority 2005, published 2007).

How the values were obtained:
[1] = test system: AMPKα; assay: AMPK-activating action in C2C12 muscle cells, AMPKα phosphorylation (Western blot); assay type: cell-based, murine; conditions: for Phospho-AMPKα: 60 minutes, C2C12, relative value to control defined as 100
Experimental: (§1) A muscle cell line (C2C12) was used to evaluate the AMPK-activating action of nootkatone according to the procedures below with AMPKα and AMPKβ phosphorylation as indexes.
Cells of the murine muscle cell line (C2C12) were seeded onto a 25 cm^2 flask and cultured in DMEM (+10% FBS, +antimicrobial agent) at 37° C. for 1 to 2 days. When the cells became confluent, the culture solution was removed, and the cells were washed with PBS (−) and further cultured for 7 to 8 days in fresh DMEM (2% (V/V) horse serum), which was in turn replaced by a fresh culture solution every 2 to 3 days. The culture solution was then removed, and the cells were washed with PBS (−) and further cultured in fresh DMEM (−FBS) for 1 day. After the removal of the culture solution, the cells were cultured in DMEM (−FBS) containing a predetermined concentration of nootkatone (obtained from Wako Pure Chemical Industries, Ltd.) for 60 minutes. After the culture solution was subsequently removed and the cells were washed with PBS (−), 200 μL of cell lysis solution (10 mmol/L Tris (pH 7.4), 50 mmol/L sodium chloride, 30 mmol/L sodium pyrophosphate, 0.5% (V/V) Triton X-100, protease inhibitor cocktail (SIGMA P2714), phosphatase inhibitor cocktail-1 (SIGMA P2850), phosphatase inhibitor cocktail-2 (SIGMA P5726)) was added and the cell lysis solution was collected with a cell scraper. The collected cell lysis solution was well homogenized by passing it through a syringe with a 23G needle three times and then left on ice for 30 minutes. The homogenate was centrifuged at 15000 r/min at 4° C. for 15 minutes, and the resulting supernatant protein was used in the measurement below.
(§2) The concentration of the supernatant protein was measured, and the protein concentrations were then adjusted among samples to constant concentrations. […]
(§3) Predetermined amounts (approximately 20 to 40 μg) of the samples for electrophoresis were subjected to SDS-PAGE (12% gel) and transferred to a membrane. Then, phospho-AMPKα and phospho-AMPKβ were detected by using anti-phospho-AMPKα ([…]) antibodies (manufactured by Cell Signaling Technology, Inc.) or anti-phospho-AMPKβ (Ser108) antibodies (manufactured by Cell Signaling Technology, Inc.) as primary antibodies, anti-rabbit-HRP antibodies (manufactured by Amersham Biosciences) as secondary antibodies, and Phototope-HRP Western Detection System (manufactured by Cell Signaling Technology, Inc.) as a detection reagent. The degree of AMPK activation was indicated as a relative value to that of a control (sample-free group) defined as 100 by digitizing (pixelizing) detected band strength by image analysis (EDAS290 image analysis system; KODAK).

[2] = Antiobesity, antidiabetic and antilifestyle-related disease effects in C57BL/6 mice raised on high-fat diet; assay type: in vivo
Experimental: The antiobesity, antidiabetic, and antilifestyle-related disease effects of nootkatone were evaluated as described below.
Seven-week-old C57BL/6 male mice were divided into 3 groups each containing 10 mice and raised with each diet of the composition described in Table 2.
Twenty-two weeks later, their body weights were measured, while blood was collected from the mice under ether anesthesia and under non-fasting conditions to measure serum glucose, cholesterol, triglyceride, insulin, and leptin levels. The amount of visceral fat (epididymal fat, retroperitoneal fat, and perirenal fat) was also measured.

[3] = test system: lipid metabolism activity (β-oxidation activity); assay: Lipid metabolism activity (β-oxidation activity) of liver and skeletal muscle after oral administration; assay type: in vivo, mice
Experimental: Seven-week-old Balb/c male mice were divided into 2 groups, to which a physiological saline (control) or nootkatone at 200 mg/kg of body weight was then orally administered for 10 consecutive days. Then, their livers and skeletal muscles (gastrocnemius muscle+soleus muscle) were collected. The livers and skeletal muscles were respectively homogenized in a buffer (250 mM sucrose, 1 mM EDTA in 10 mM HEPES (pH 7.2)), and the insoluble tissue residues were removed by centrifugation to obtain supernatants. The obtained supernatants were measured for protein levels. The protein levels were adjusted among samples to constant levels, and the samples were used in the measurement of lipid metabolism activity (β-oxidation activity). A 100-μg aliquot of the supernatant protein was reacted at 37° C. for 20 minutes with 0.1 μCi [^14C]-palmitic acid in a buffer (50 mM Tris-HCl (pH 8.0), 40 mM NaCl, 2 mM KCl, 2 mM MgCl2, 1 mM DTT, 5 mM ATP, 0.2 mM L-carnitine, 0.2 mM NAD, 0.06 mM FAD, 0.12 mM CoA, 3 mM α-cyclodextrin) at the final volume of 200 μL. The reaction was terminated with 200 μL of 0.6 N perchloric acid, and the unreacted [^14C]-palmitic acid was removed 3 times with 1 mL hexane. Lipid-degrading activity was measured by measuring radioactivity of the aqueous layer.
The degree of the lipid-degrading activity was indicated as a relative value to that of the control defined as 100.

[4] = test system: AMPKβ; assay: AMPK-activating action in C2C12 muscle cells, AMPKβ phosphorylation (Western blot); assay type: cell-based, murine; conditions: 60 minutes, relative value to control defined as 100
Experimental: as §1
Cells of the murine muscle cell line (C2C12) were seeded onto a 25 cm^2 flask and cultured in DMEM (+10% FBS, +antimicrobial agent) at 37° C. for 1 to 2 days. When the cells became confluent, the culture solution was removed, and the cells were washed with PBS (−) and further cultured for 7 to 8 days in fresh DMEM (2% (V/V) horse serum), which was in turn replaced by a fresh culture solution every 2 to 3 days. The culture solution was then removed, and the cells were washed with PBS (−) and further cultured in fresh DMEM (−FBS) for 1 day. After the removal of the culture solution, the cells were cultured in DMEM (−FBS) containing a predetermined concentration of nootkatone (obtained from Wako Pure Chemical Industries, Ltd.) for 60 minutes. […]
as §2, §3

[5] = Endurance-enhancing and antifatigue effects, maximum swimming time of mice in a current water pool; assay type: in vivo; conditions: for Maximum swimming time: 7 L/min, Balb/c male mice
Experimental: The endurance-enhancing and antifatigue effects of nootkatone were evaluated as described below. Nootkatone used was a product of Avocado.
The endurance-enhancing and antifatigue effects were evaluated according to the measurement method of maximum swimming time of mice (Reference: Am J Physiol Regul Integr Comp Physiol, Vol. 288, R708-R715, 2005) in a current water pool. The experimental pool used was a clear acrylic pool (90 cm long×45 cm wide×45 cm deep) filled to a depth of 38 cm with water maintained at 34° C. with a heater. The current in the pool was generated with a pump (C-P60H, manufactured by Hitachi), and the current speed was adjusted by connecting Water flowmeter (Tofco) to the pump and opening and closing a valve. The current speed was measured with a digital current meter (SV-101-25S, Sankou Seimitsu Kogyo).
Experimental animals used were 5-week-old Balb/c male mice (Charles River Laboratories, Inc.). The mice were preliminarily raised for 1 week under a constant raising environment (23±2° C., light period: 7 a.m. to 7 p.m.) and acclimated. In subsequent 1-week training, the mice were accustomed to swimming exercise three times a week (subjected to swimming exercise for 30 minutes at a current speed of 5 L/min on the first day, and for 30 minutes at a current speed of 6 L/min on the third and fifth days). […] The mice were divided into 2 groups, a test diet group and a control diet group, each containing 8 mice, to prevent a difference in maximum swimming time between the groups. Diets prepared in the formulation composition shown in Table 8 were used to raise the mice for 10 weeks. During this period, the measurement of maximum swimming time (7 L/min) and training (6 L/min, 30 minutes) were performed once every week.

[6] = Group 3 (0.5% nootkatone), 22 weeks
[7] = Group 3: high-fat diet with 0.5% nootkatone, 22 weeks, C57BL/6 male mice
[8] = serum, non-fasting, Group 3: high-fat diet with 0.5% nootkatone, 22 weeks

## C=C(C)[C@@H]1CCC2=CC(=O)C[C@@H](C)[C@]2(C)C1 (stereo in doubt) [Nootkatone, 4,4a,5,6,7,8-hexahydro-6-isopropenyl-4,4a-dimethyl-2(3H)-naphthalenone]
[1]; C2C12, summary of Table 1
  AMPK-activating action in the muscle cells: strong AMPK-activating action
[1]; nootkatone 50 μmol/L
  Phospho-AMPKα: 402
[1]; nootkatone 100 μmol/L
  Phospho-AMPKα: 952
[1]; nootkatone 150 μmol/L
  Phospho-AMPKα: 1077
[2]; Group 3 (0.5% nootkatone) as compared with Group 2
  Increment of body weights and amount of visceral fat: remarkably reduced
[2]; [6]
  Effect on rise in blood cholesterol level: excellent inhibitory effect
  Effect on rise in blood insulin level: excellent inhibitory effect
  Effect on rise in blood leptin level: excellent inhibitory effect
  Effect on rise in blood triglyceride level: excellent inhibitory effect
  Effect on rise in blood-glucose level: excellent inhibitory effect
[2]; [7]
  Body weight: 30.4 g
  Epididymal fat: 0.47 g
  Perirenal fat: 0.07 g
  Retroperitoneal fat: 0.15 g
[2]; [8]
  Glucose: 212.3 mg/dL
  Insulin: 1.26 ng/mL
  Leptin: 6.2 ng/mL
  Total cholesterol: 131.3 mg/dL
  Triglyceride: 54.3 mg/dL
[3]; 200 mg/kg orally for 10 consecutive days, Balb/c male mice, gastrocnemius + soleus muscle, relative value to control defined as 100
  Lipid-degrading activity (β-oxidation activity), skeletal muscle: 271
[3]; 200 mg/kg orally for 10 consecutive days, Balb/c male mice, relative value to control defined as 100
  Lipid-degrading activity (β-oxidation activity), liver: 273
[3]; mice given nootkatone 200 mg/kg, 10 days, versus control
  Lipid-degrading activity (β-oxidation activity) of the liver and skeletal muscle: remarkably increased
[4]; nootkatone 50 μmol/L
  Phospho-AMPKβ: 241
[4]; nootkatone 100 μmol/L
  Phospho-AMPKβ: 314
[4]; nootkatone 150 μmol/L
  Phospho-AMPKβ: 358
[5]; after 10 week raising on test diet with 0.2% nootkatone
  Maximum swimming time: 40.01 ± 3.17 min
[5]; before raising (baseline of test diet group)
  Maximum swimming time: 27.31 ± 1.72 min
[5]; test diet containing nootkatone as compared with the control diet group
  Maximum swimming time after 10-week raising: significantly prolonged
